pIC50: −log10 of the molar value.
Key:
[1] = molecular target: Mu-type opioid receptor (Rattus norvegicus, UniProt P33535); assay: Displacement of [3H]DAMGO from mu opioid receptor in rat brain homogenate; assay type: tissue-based
[2] = molecular target: Kappa-type opioid receptor (Homo sapiens, UniProt P41145); assay: Displacement of [3H]U-69593 from kappa opioid receptor
[3] = molecular target: Mu-type opioid receptor (Cavia porcellus) (UniProt P97266); assay: Activity at mu opioid receptor in guinea-pig ileum assay; assay type: functional, tissue-based; details: filed as antagonist
[4] = molecular target: Delta-type opioid receptor (Homo sapiens, UniProt P41143); assay: Displacement of [3H]DPDE from delta opioid receptor
[5] = molecular target: Mu-type opioid receptor (Cavia porcellus, UniProt P97266); assay: Antagonist activity against mu opioid receptor in guinea-pig ileum assay; assay type: functional, tissue-based
Chain of Mu-type opioid receptor (Cavia porcellus, UniProt P97266) (P97266 whole entry): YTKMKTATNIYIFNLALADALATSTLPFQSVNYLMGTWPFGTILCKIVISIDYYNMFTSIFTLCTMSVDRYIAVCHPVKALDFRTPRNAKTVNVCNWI

Chain of Kappa-type opioid receptor (P41145 whole entry): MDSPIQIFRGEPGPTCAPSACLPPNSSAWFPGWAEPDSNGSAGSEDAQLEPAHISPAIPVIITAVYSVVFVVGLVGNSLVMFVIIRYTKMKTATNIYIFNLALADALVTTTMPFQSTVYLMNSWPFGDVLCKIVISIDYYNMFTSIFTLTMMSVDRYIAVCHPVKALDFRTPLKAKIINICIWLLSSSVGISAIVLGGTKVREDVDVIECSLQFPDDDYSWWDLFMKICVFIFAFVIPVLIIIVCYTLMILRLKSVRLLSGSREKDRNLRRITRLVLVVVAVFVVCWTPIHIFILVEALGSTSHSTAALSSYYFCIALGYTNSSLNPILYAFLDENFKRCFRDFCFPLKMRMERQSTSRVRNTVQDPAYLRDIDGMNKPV
Chain of Mu-type opioid receptor (Cavia porcellus) (P97266 whole entry): as the sequence (P97266 whole entry) above
Chain of Delta-type opioid receptor (P41143 whole entry): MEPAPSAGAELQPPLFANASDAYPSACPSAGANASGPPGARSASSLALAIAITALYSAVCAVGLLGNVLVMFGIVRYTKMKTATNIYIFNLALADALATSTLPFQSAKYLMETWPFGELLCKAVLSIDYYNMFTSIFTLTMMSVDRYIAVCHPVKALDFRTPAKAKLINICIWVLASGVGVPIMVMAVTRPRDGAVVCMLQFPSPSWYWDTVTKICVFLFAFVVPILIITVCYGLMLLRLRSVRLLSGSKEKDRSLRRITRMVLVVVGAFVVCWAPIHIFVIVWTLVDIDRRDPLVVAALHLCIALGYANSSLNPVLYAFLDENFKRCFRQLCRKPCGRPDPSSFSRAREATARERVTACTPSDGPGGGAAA
Chain of Mu-type opioid receptor (Rattus norvegicus, UniProt P33535) (P33535 whole entry): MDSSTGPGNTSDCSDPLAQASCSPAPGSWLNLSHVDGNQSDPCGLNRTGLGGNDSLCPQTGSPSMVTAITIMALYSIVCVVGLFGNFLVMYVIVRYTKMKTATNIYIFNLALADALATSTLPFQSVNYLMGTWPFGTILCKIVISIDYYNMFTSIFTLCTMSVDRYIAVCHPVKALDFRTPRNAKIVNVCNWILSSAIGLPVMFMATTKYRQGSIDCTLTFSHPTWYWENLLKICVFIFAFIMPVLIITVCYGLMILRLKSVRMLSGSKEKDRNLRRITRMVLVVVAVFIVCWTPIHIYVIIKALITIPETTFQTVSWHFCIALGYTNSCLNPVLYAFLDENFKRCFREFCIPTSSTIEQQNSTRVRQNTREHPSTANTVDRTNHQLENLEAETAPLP

SMILES	pIC50 [1]	pIC50 [2]	Activity [3]	pIC50 [4]	pIC50 [5]
CNC[C@H](Cc1ccccc1)N(C)C[C@H](Cc1ccc(O)cc1)N(C)C[C@H](Cc1ccc(O)cc1)N(C)C	9.30	5.98	Antagonist	5.31	
CNC[C@@H](Cc1ccccc1)N(C)C[C@H](Cc1ccc(O)cc1)N(C)C[C@@H](N)Cc1ccc(O)cc1	7.43	5.84	Antagonist	5.07	
CNC[C@H](Cc1ccccc1)N(C)C[C@@H](Cc1ccc(O)cc1)N(C)C[C@@H](N)Cc1ccc(O)cc1	6.47	4.65	Antagonist	4.32	
CNC[C@@H]1CCCN1C[C@H](Cc1ccccc1)N(C)C[C@H](Cc1ccc(O)cc1)N(C)C[C@H](Cc1ccc(O)cc1)N(C)C					8.10
CNC[C@@H]1CCCN1C[C@H](Cc1ccccc1)N(C)C[C@H](Cc1ccc(O)cc1)N(C)C[C@@H](N)Cc1ccc(O)cc1			Antagonist		7.89
N[C@@H](Cc1ccc(O)cc1)CN(Cc1ccccc1)[C@@H](Cc1ccc(O)cc1)CN(Cc1ccccc1)[C@@H](Cc1ccccc1)CN1CCC[C@H]1CNCc1ccccc1					5.35
CNC[C@@H](Cc1ccccc1)N(C)C[C@@H](Cc1ccc(O)cc1)N(C)C[C@@H](Cc1ccc(O)cc1)N(C)C	6.08	5.06	Antagonist	5.30	
CNC[C@H](Cc1ccccc1)N(C)C[C@@H](Cc1ccc(O)cc1)N(C)C[C@@H](Cc1ccc(O)cc1)N(C)C	5.82	5.22	Antagonist	4.75	
CNC[C@H](Cc1ccc(O)cc1)N(Cc1ccccc1)C[C@H](Cc1ccc(O)cc1)N(C)C	5.89	4.97		4.25	
CNC[C@@H]1CCCN1C[C@H](Cc1ccccc1)N(C)C[C@H](Cc1ccc(O)cc1)N(C)C[C@H](Cc1ccc(O)cc1)NC					8.70
CNC[C@@H](Cc1ccccc1)N(C)C[C@H](Cc1ccc(O)cc1)N(C)C[C@@H](Cc1ccc(O)cc1)N(C)C	6.02	4.81	Antagonist	4.95	
CN(C)[C@H](CN[C@H](CN)Cc1ccc(O)cc1)Cc1ccc(O)cc1	6.58	4.65		4.75	
NC[C@@H]1CCCN1C[C@H](Cc1ccccc1)NC[C@H](Cc1ccc(O)cc1)NC[C@@H](N)Cc1ccc(O)cc1					8.22
CNC[C@@H](Cc1ccccc1)N(C)C[C@@H](Cc1ccc(O)cc1)N(C)C[C@H](Cc1ccc(O)cc1)N(C)C	6.06	4.65	Antagonist	4.77	
CCNC[C@@H]1CCCN1C[C@H](Cc1ccccc1)N(CC)C[C@H](Cc1ccc(O)cc1)N(CC)C[C@@H](N)Cc1ccc(O)cc1					7.35
CNC[C@H](Cc1ccccc1)N(C)C[C@H](Cc1ccc(O)cc1)N(C)C[C@@H](Cc1ccc(O)cc1)N(C)C	6.18	4.98	Antagonist	5.04	
N[C@@H](Cc1ccc(O)cc1)CN(Cc1ccc2ccccc2c1)[C@@H](Cc1ccc(O)cc1)CN(Cc1ccc2ccccc2c1)[C@@H](Cc1ccccc1)CN1CCC[C@H]1CNCc1ccc2ccccc2c1					4.73

Reference: ChEMBL document CHEMBL1145313, “Identification of potent and highly selective chiral tri-amine and tetra-amine mu opioid receptors ligands: an example of lead optimization using mixture-based libraries” (Bioorg Med Chem Lett, 2006)
